Results taken from article PMC9653804, “Multifunctional Derivatives of Spiropyrrolidine Tethered Indeno-Quinoxaline Heterocyclic Hybrids as Potent Antimicrobial, Antioxidant and Antidiabetic Agents: Design, Synthesis, In Vitro and In Silico Approaches” (Molecules, 2022).
Converted amounts (≈) assume the structure as drawn.

Columns and labels:
[1] = Radical scavenging activity ABTS; details: for IC50: ABTS radical scavenging; for ABTS scavenging activity, fold higher than Trolox: relative to standard Trolox
Method: The ABTS assay was performed as previously described by Tuberoso et al.. ABTS^+ radical was generated by oxidation of ABTS with potassium persulfate. The blue–green ABTS was produced through the reaction between 2 mM ABTS and […] potassium persulfate in water. The mixture was left to stand in the dark for 12 to 16 h before use. The ABTS solution was diluted with methanol to an absorbance of 0.700 ± 0.005 at 734 nm. Then 2 mL of diluted ABTS solution was mixed with 100 μL of samples and absorbance was measured after 1 min incubation at room temperature. A standard curve was obtained by using Trolox as standard solution. The results were expressed as μM Trolox equivalent.
The mixture of 7 mmol/L aqueous ABTS solution with 2.45 mmol/L potassium persulfate solution constitutes a stable ABTS^+ stock solution that was allowed to stand in the dark and at room temperature for 12 to 16 h before use. A 1 mL sample of the diluted ABTS solution (adjusted to 0.7 ± 0.02 at […]) was added to 10 μL of each product. The absorbance was determined after 6 min. The percentage inhibition of the ABTS˙ radical was calculated from the following equation:% inhibition = (Abscontrol − Abstest)/Abscontrol × 100
Abs control: the control absorbance.
Abs test: the absorbance of the test sample after 6 min.

[2] = test system: Candida albicans ATCC 90028; experiment: Antifungal activity (MIC, MFC) against C. albicans; assay type: cell-based; details: C. albicans ATCC 90028, '-' = No activity; for MFC/MIC: fungicidal ≤ 4, fungistatic > 4; for MFC / MIC: Candida albicans, ATCC90028
[3] = test system: Pseudomonas aeruginosa ATCC 27853; experiment: Antimicrobial activity (MIC, MBC) against P. aeruginosa; assay type: cell-based; details: P. aeruginosa ATCC 27853; '-' = No activity
Candida krusei ATCC 6258 = experiment: Antifungal activity (MIC, MFC) against C. krusei; assay type: cell-based; details: C. krusei ATCC 6258, '-' = No activity; for MFC / MIC: Pichia kudriavzevii, ATCC6258
[4] = Ferric reducing power assay (FRAP)
[5] = test system: Staphylococcus aureus ATCC 25923; experiment: Antimicrobial activity (MIC, MBC) against S. aureus; assay type: cell-based; details: S. aureus ATCC 25923; for MBC/MIC: bactericidal ≤ 4, bacteriostatic > 4; for MIC: Staphylococcus aureus, ATCC25923, '-' = No activity
[6] = test system: Escherichia coli ATCC 25922; experiment: Antimicrobial activity (MIC, MBC) against E. coli; assay type: cell-based; details: E. coli ATCC 25922; '-' = No activity
[7] = DPPH free radical scavenging activity; details: DPPH radical scavenging
Method: DPPH, the stable artificial free radicals, has been widely used for the measurement of free radical scavenging capacity of the compounds in ethanol and aqueous systems. Briefly, 2 mL DPPH solution (0.2 mM, in 95% ethanol) was incubated with 2 mL different concentrations of compounds solution. Then, the reaction mixture was shaken and incubated in the dark for 40 min at room temperature. The absorbance was immediately recorded at 517 nm against ethanol with a spectrophotometer (Metash, model UV-5200, Shanghai Xiwen Biotech. Co., Ltd, Shanghai, China). The DPPH free radical scavenging rate was calculated using the equation:DPPH scavenging activity (%) = A0 − A1/A0 × 100 where A0 was the absorbance of the control reaction (containing all reagents except the tested compound), and A1 was the absorbance of the test reaction (containing all reagents with the tested compound). The percentage of DPPH radical scavenging activity was plotted against the sample concentration to acquire the IC50 value, defined as the concentration of sample necessary to cause 50% inhibition. Radical scavenging activity (RSA) was calculated from the IC50 value as the equation: RSA = pIC50 = −lg[IC50]. The smaller the IC50 value, the larger is the RSA value and the higher is the antioxidant activity.

[8] = test system: Micrococccus luteus NCIMB 8166; experiment: Antimicrobial activity (MIC, MBC) against M. luteus; assay type: cell-based; details: M. luteus NCIMB 8166, '-' = No activity

Row | Compound | IC50 [1] [µM] | MFC/MIC [2] | MBC/MIC [3] | MFC/MIC (Candida krusei ATCC 6258) | MFC (Candida krusei ATCC 6258) [mM] | MIC (Candida krusei ATCC 6258) [mM] | IC50 [4] [µM] | MBC/MIC [5] | MBC/MIC [6] | IC50 [7] [µM] | melting point [°C] | MIC [5] [mM] | MFC [2] [mM] | MIC [2] [mM] | MBC/MIC [8] | MIC ([8]; Micrococcus luteus, NCIMB8166) [mM] | ABTS scavenging activity, fold higher than Trolox [1]
1 | CN1C(=O)CC2(C1=O)C(c1ccccc1)CN(C)C21c2ccccc2-c2nc3ccccc3nc21 (stereo not drawn) [5a, Spiro [2,11″]indeno-[1,2b]-quinoxaline-spiro-[3,3′]-N-methylsuccinimide-4-(phenyl)hexahydro-1H-pyrrolidines] | 49.19 ± 0.46 | 1 | 4 | 1 | 67.6 (≈ 31.1 mg/mL) | 67.6 (≈ 31.1 mg/mL) | 17 ± 0.52 | 2 | 2 | 15.4 ± 0.65 | 173 to 175 | – | – | – | – | – | –
2 | Cc1ccc(C2CN(C)C3(c4ccccc4-c4nc5ccccc5nc43)C23CC(=O)N(C)C3=O)cc1 (stereo not drawn) [5b, Spiro [2,11″]indeno-[1,2b]-quinoxaline-spiro-[3,3′]-N-methylsuccinimide-4-(4-methylphenyl)hexahydro-1H-pyrrolidines] | 57.51 ± 0.55 | 2 | 4 | 1 | 65.6 (≈ 31.1 mg/mL) | 65.6 (≈ 31.1 mg/mL) | 63.26 ± 0.21 | 8 | 2 | 33.74 ± 0.004 | 183 to 185 | 65.6 (≈ 31.1 mg/mL) | – | – | – | – | –
3 | COc1ccccc1C1CN(C)C2(c3ccccc3-c3nc4ccccc4nc32)C12CC(=O)N(C)C2=O (stereo not drawn) [5c, Spiro [2,11″]indeno-[1,2b]-quinoxaline-spiro-[3,3′]-N-methylsuccinimide-4-(2 methoxyphenyl)hexahydro-1H-pyrrolidines] | 7.03 ± 0.07 | 1 | 2 | 1 | 63.4 (≈ 31.1 mg/mL) | 63.4 (≈ 31.1 mg/mL) | 3.69 ± 0.72 | 16 | – | 3.26 ± 0.32 | 196 to 198 | 31.7 (≈ 15.6 mg/mL) | 63.4 (≈ 31.1 mg/mL) | 63.4 (≈ 31.1 mg/mL) | – | – | –
4 | COc1ccc(C2CN(C)C3(c4ccccc4-c4nc5ccccc5nc43)C23CC(=O)N(C)C3=O)cc1 (stereo not drawn) [5d, Spiro [2,11″]indeno-[1,2b]-quinoxaline-spiro-[3,3′]-N-methylsuccinimide-4-(4-methoxyphenyl)hexahydro-1H-pyrrolidines] | 9.78 ± 0.3 | 4 | 4 | 1 | 15.8 (≈ 7.78 mg/mL) | 15.8 (≈ 7.78 mg/mL) | 8.09 ± 0.82 | 32 | 4 | 7.44 ± 0.15 | 179 to 181 | 3.95 (≈ 1.94 mg/mL) | – | 31.7 (≈ 15.6 mg/mL) | 4 | 63.4 (≈ 31.1 mg/mL) | –
5 | CN1C(=O)CC2(C1=O)C(c1ccc(Br)cc1)CN(C)C21c2ccccc2-c2nc3ccccc3nc21 (stereo not drawn) [5f, Spiro [2,11″]indeno-[1,2b]-quinoxaline-spiro-[3,3′]-N-methylsuccinimide-4-(4-bromophenyl)hexahydro-1H-pyrrolidines] | 18.1 ± 0.53 | 1 | 2 | 1 | 57.7 (≈ 31.1 mg/mL) | 57.7 (≈ 31.1 mg/mL) | 7.93 ± 0.44 | 2 | 2 | 16.1 ± 0.39 | 200 to 202 | – | 57.7 (≈ 31.1 mg/mL) | 57.7 (≈ 31.1 mg/mL) | – | – | ~6 fold
6 | CN1C(=O)CC2(C1=O)C(c1ccc(F)cc1)CN(C)C21c2ccccc2-c2nc3ccccc3nc21 (stereo not drawn) [5g, Spiro [2,11″]indeno-[1,2b]-quinoxaline-spiro-[3,3′]-N-methylsuccinimide-4-(4-fluorophenyl)hexahydro-1H-pyrrolidines] | 7.19 ± 0.11 | 1 | 2 | 1 | 32.5 (≈ 15.6 mg/mL) | 32.5 (≈ 15.6 mg/mL) | 20.5 ± 0.6 | 16 | 2 | 26 ± 0.5 | 205 to 207 | 16.2 (≈ 7.78 mg/mL) | 65 (≈ 31.1 mg/mL) | 65 (≈ 31.1 mg/mL) | – | – | about 14 fold
7 | COc1ccc(C2CN(C)C3(c4ccccc4-c4nc5ccccc5nc43)C23CC(=O)N(C)C3=O)cc1Br (stereo not drawn) [5k, Spiro [2,11″]indeno-[1,2b]-quinoxaline-spiro-[3,3′]-N-methylsuccinimide-4-(3-bromo-4-methoxyphenyl)hexahydro-1H-pyrrolidines] | 7.69 ± 0.36 | 1 | 2 | 1 | 54.7 (≈ 31.1 mg/mL) | 54.7 (≈ 31.1 mg/mL) | 6.03 ± 0.12 | 8 | 2 | 123.4 ± 0.45 | 209 to 211 | 54.7 (≈ 31.1 mg/mL) | – | – | – | – | –
8 | C[C@@H]1[C@H](O)[C@@H](C)/C=C/C=C/C=C/C=C/C=C/C=C/C=C/[C@H](O[C@@H]2O[C@H](C)[C@@H](O)[C@H](N)[C@@H]2O)C[C@@H]2O[C@](O)(C[C@@H](O)C[C@@H](O)[C@H](O)CC[C@@H](O)C[C@@H](O)CC(=O)O[C@H]1C)C[C@H](O)[C@H]2C(=O)O [Amphotericin B, reference compound] | – | 1 | – | 1 | 5.41 (≈ 5 mg/mL) | 5.41 (≈ 5 mg/mL) | – | – | – | – | – | – | 5.41 (≈ 5 mg/mL) | 5.41 (≈ 5 mg/mL) | – | – | –
9 | CN(C)[C@@H]1C(O)=C(C(N)=O)C(=O)[C@@]2(O)C(O)=C3C(=O)c4c(O)cccc4[C@@](C)(O)[C@H]3C[C@@H]12 [Tetracycline, reference compound] | – | – | 2 | – | – | – | – | 2 | 1 | – | – | – | – | – | 2 | – | –
10 | Cc1c(C)c2c(c(C)c1O)CCC(C)(C(=O)O)O2 (stereo not drawn) [Trolox, reference compound] | 99.88 ± 0.31 | – | – | – | – | – | 41.9 ± 2.07 | – | – | 31.2 ± 3.67 | – | – | – | – | – | – | –
